Results on two compounds are retold here after ChEMBL document CHEMBL3046622, “Synthesis and bioactivity of some new 1-tolyl-3-aryl-4-methylimidazole-2-thiones” (2007).

SMILES strings stand for the structures.

Assay type in all cases: functional
One test deals with Tribolium castaneum. Description: Insecticidal activity against Tribolium castaneum (red flour beetle) assessed as mortality at 200 ug/ml.
In another test the test system is Trichophyton longifusum. Nature of the test: Antifungal activity against Trichophyton longifusum assessed as fungus growth at 200 mg/ml by agar dilution method relative to control.
For a further test, the system named is Candida albicans. Nature of the test: Antifungal activity against Candida albicans assessed as fungus growth at 200 mg/ml by agar dilution method relative to control.
A further test deals with Rhyzopertha dominica. Description: Insecticidal activity against Rhyzopertha dominica assessed as mortality at 200 ug/ml.
A further test deals with Bacillus subtilis. Description: Antibacterial activity against Bacillus subtilis at 2 mg/ml by agar well diffusion method. The following applies: read-out: DIZ.
In the next test the test system is Staphylococcus aureus. Nature of the test: Antibacterial activity against Staphylococcus aureus at 2 mg/ml by agar well diffusion method. The following applies: read-out: DIZ.
Another test relates to Aspergillus flavus. Description: Antifungal activity against Aspergillus flavus assessed as fungus growth at 200 mg/ml by agar dilution method relative to control.
For another test, the system named is Nakaseomyces glabratus. Description: Antifungal activity against Candida glabrata assessed as fungus growth at 200 mg/ml by agar dilution method relative to control.
The test system of the next test is Callosobruchus analis. Description: Insecticidal activity against Callosobruchus analis assessed as mortality at 200 ug/ml.
Test [1] concerns Pseudomonas aeruginosa. Nature of the test: Antibacterial activity against Pseudomonas aeruginosa assessed as bacterial growth at 200 mg/ml by agar dilution method relative to control.
Another test has as its system Fusarium solani. Description: Antifungal activity against Fusarium solani assessed as fungus growth at 200 mg/ml by agar dilution method relative to control.
The subject of a further test is Sitophilus oryzae. Description: Insecticidal activity against Sitophilus oryzae (rice weevil) assessed as mortality at 200 ug/ml.
Another test has as its system Escherichia coli. Description: Antibacterial activity against Escherichia coli at 2 mg/ml by agar well diffusion method. The following applies: read-out: DIZ.
Test [2] concerns Pseudomonas aeruginosa. Description: Antibacterial activity against Pseudomonas aeruginosa at 2 mg/ml by agar well diffusion method. The note with it: read-out: DIZ.

On to `Cc1ccc(C(=O)n2cc(C)n(-c3ccccc3Cl)c2=S)cc1`, for which the Activity turned out to be 20% in the test on Tribolium castaneum; 90% with Trichophyton longifusum; 100% in the test with Candida albicans; 25% in the test with Rhyzopertha dominica; 86% in the test on Aspergillus flavus; 90% in the test with Nakaseomyces glabratus. Besides, the Activity in the test with Callosobruchus analis came out at 10%; with Pseudomonas aeruginosa [1], 100%; with Fusarium solani it was 100%; in the test on Sitophilus oryzae, 43%. The zone of inhibition at 2000 µg/mL in the test on Bacillus subtilis was determined as 15 mm; in the test on Staphylococcus aureus, 21 mm; in the test on Escherichia coli it was 17 mm; in the test with Pseudomonas aeruginosa [2], 12 mm.

For `Cc1ccc(C(=O)n2cc(C)n(-c3cccc(Cl)c3)c2=S)cc1`, the Activity in the test with Tribolium castaneum came out at 20%; in the test with Trichophyton longifusum, 80%; with Candida albicans it was 100%; with Rhyzopertha dominica it was 18%; in the test with Aspergillus flavus, 100%; with Nakaseomyces glabratus, 100%. Also, the Activity in the test on Callosobruchus analis turned out to be 30%; in the test on Pseudomonas aeruginosa [1], 60%; with Fusarium solani, 95%; in the test on Sitophilus oryzae it was 14%. Besides, the zone of inhibition at 2000 µg/mL in the test with Bacillus subtilis came to 14 mm; in the test with Staphylococcus aureus, 18 mm; in the test with Escherichia coli, 20 mm; in the test with Pseudomonas aeruginosa [2] it was 16 mm.
